The text below walks through data of patent US5457104A, “Quinolone- and naphthyridonecarboxylic acid derivatives” (Bayer Aktiengesellschaft, priority 1993, dated 1995).

SMILES strings stand for the structures. ≈ marks a conversion by molar mass, not a printed value.

What all share (assay): MIC, serial dilution test on Iso-sensitest agar
Common to all, as to type: cell-based

Assay [1] has as its system Acinetobacter caloaceticus 14068. Conditions: 37° C., approx. 20 hours, approx. 10^4 CFU per inoculation point. The procedure:
(§1) The minimum inhibitory concentrations (MIC) were determined by the serial dilution test on Iso-sensitest agar (Oxoid). For each test substance, a series of agar plates was prepared which contained concentrations of the active substance which decreased at a rate of in each case twice the dilution factor. The agar plates were inoculated using a multipoint inoculator (Denley). For inoculation, overnight cultures of the pathogens were used which had previously been diluted in such a manner that each inoculation point contained approximately 10^4 colony-forming units. The inoculated agar plates were incubated at 37° C., and the microbial growth was observed after approx. 20 hours. The MIC value (μg/ml) indicates the lowest active compound concentration at which no growth could be detected by the naked eye.

In the next assay the test system is E. coli 455/7. Conditions: Escherichia coli, 37° C., approx. 20 hours, approx. 10^4 CFU per inoculation point. As for the experimental part: as §1
A further assay has as its system E. coli Neumann. The conditions noted are these: Escherichia coli, 37° C., approx. 20 hours, approx. 10^4 CFU per inoculation point. The procedure: as §1
Assay [2] concerns Enterococcus faecalis 27101. Conditions: 37° C., approx. 20 hours, approx. 10^4 CFU per inoculation point. The procedure:
as §1

For assay [3], the system named is Enterococcus faecalis 9790. Conditions: 37° C., approx. 20 hours, approx. 10^4 CFU per inoculation point. As for the experimental part: as §1
For a further assay, the system named is Klebsiella pneumoniae 63. Conditions: 37° C., approx. 20 hours, approx. 10^4 CFU per inoculation point. The procedure:
as §1

The test system of assay [4] is Klebsiella pneumoniae 8085. Conditions: 37° C., approx. 20 hours, approx. 10^4 CFU per inoculation point. The procedure:
as §1

For the next assay, the system named is Mirococcus luteus 9341. The conditions noted are these: 37° C., approx. 20 hours, approx. 10^4 CFU per inoculation point. As for the experimental part:
as §1

The next assay deals with Providencia sp. 12012. The conditions noted are these: 37° C., approx. 20 hours, approx. 10^4 CFU per inoculation point. The procedure: as §1
The subject of a further assay is Providencia sp. 12052. The conditions noted are these: 37° C., approx. 20 hours, approx. 10^4 CFU per inoculation point. As for the experimental part:
as §1

Assay [5] concerns Staphylococcus aureus 133. Conditions: 37° C., approx. 20 hours, approx. 10^4 CFU per inoculation point. As for the experimental part:
as §1

Assay [6] relates to Staphylococcus aureus 1756. Conditions: 37° C., approx. 20 hours, approx. 10^4 CFU per inoculation point. As for the experimental part:
as §1

For assay [7], the system named is Staphylococcus aureus 25768. The conditions noted are these: 37° C., approx. 20 hours, approx. 10^4 CFU per inoculation point. The procedure: as §1
Assay [8] has as its system Staphylococcus aureus ICB 25701. The conditions noted are these: ICB25701, 37° C., approx. 20 hours, approx. 10^4 CFU per inoculation point. The procedure:
as §1

Take `NC1C=CCC2CN(c3ccc4c(=O)c(C(=O)O)cn(C5CC5)c4c3Cl)CC12` (stereo not shown) [Example 7]: the MIC (usually the smallest concentration in the dilution series that meets the test's criterion for growth inhibition) came out at 0.015 µg/mL (≈ 0.0375 µM) in assay [1]; 0.5 µg/mL (≈ 1.25 µM) against E. coli 455/7; 0.0078 µg/mL (≈ 0.0195 µM) against E. coli Neumann; 0.015 µg/mL (≈ 0.0375 µM) in assay [2]; 0.03 µg/mL (≈ 0.075 µM) in [3]; 0.015 µg/mL (≈ 0.0375 µM) with Klebsiella pneumoniae 63. Also, the MIC was 0.015 µg/mL (≈ 0.0375 µM) in [4]; 0.03 µg/mL (≈ 0.075 µM) in the assay on Mirococcus luteus 9341; 0.015 µg/mL (≈ 0.0375 µM) in the assay on Providencia sp. 12012; 1 µg/mL (≈ 2.5 µM) against Providencia sp. 12052; 0.0039 µg/mL (≈ 0.00975 µM) in [5]; 0.0039 µg/mL (≈ 0.00975 µM) in assay [6]. In addition, the MIC in assay [7] worked out at 2 µg/mL (≈ 5 µM); in assay [8], 0.06 µg/mL (≈ 0.15 µM).
As to `CC1C=CC(N)C2CN(c3ccc4c(=O)c(C(=O)O)cn(C5CC5)c4c3Cl)CC12` (stereo not shown) [Example 8], the minimum inhibitory concentration (MIC) in [1] was 0.03 µg/mL (≈ 0.0725 µM); against E. coli 455/7 it was 0.5 µg/mL (≈ 1.21 µM); against E. coli Neumann, 0.015 µg/mL (≈ 0.0362 µM); in [2], 0.06 µg/mL (≈ 0.145 µM); in assay [3], 0.06 µg/mL (≈ 0.145 µM); against Klebsiella pneumoniae 63 it was 0.03 µg/mL (≈ 0.0725 µM). The MIC was 0.03 µg/mL (≈ 0.0725 µM) in assay [4]; 0.06 µg/mL (≈ 0.145 µM) in the assay with Mirococcus luteus 9341; 0.06 µg/mL (≈ 0.145 µM) with Providencia sp. 12012; 1 µg/mL (≈ 2.42 µM) against Providencia sp. 12052; 0.0078 µg/mL (≈ 0.0188 µM) in assay [5]; 0.0078 µg/mL (≈ 0.0188 µM) in assay [6]. Also, the results for the minimal inhibitory concentration (MIC) in assay [7] and in [8] were 2 µg/mL (≈ 4.83 µM) and 0.06 µg/mL (≈ 0.145 µM), respectively.
On to `NC1C=CCC2CN(c3ccc4c(=O)c(C(=O)O)cn(C5CC5)c4c3F)CC12` (stereo not shown) [Example 20], for which the minimum inhibitory concentration (MIC) came out at 0.06 µg/mL (≈ 0.156 µM) in assay [1]; 1 µg/mL (≈ 2.61 µM) against E. coli 455/7; 0.03 µg/mL (≈ 0.0782 µM) against E. coli Neumann; 0.06 µg/mL (≈ 0.156 µM) in [2]; 0.06 µg/mL (≈ 0.156 µM) in assay [3]; 0.03 µg/mL (≈ 0.0782 µM) in the assay with Klebsiella pneumoniae 63. Besides, the minimal inhibitory concentration (MIC) turned out to be 0.03 µg/mL (≈ 0.0782 µM) in [4]; 0.06 µg/mL (≈ 0.156 µM) in the assay with Mirococcus luteus 9341; 0.06 µg/mL (≈ 0.156 µM) against Providencia sp. 12012; 1 µg/mL (≈ 2.61 µM) against Providencia sp. 12052; 0.03 µg/mL (≈ 0.0782 µM) in [5]; 0.015 µg/mL (≈ 0.0391 µM) in assay [6]. Besides, the values for the MIC in [7] and in assay [8] were 4 µg/mL (≈ 10.4 µM) and 0.25 µg/mL (≈ 0.652 µM), respectively.
On to `CC1C=CC(N)C2CN(c3ccc4c(=O)c(C(=O)O)cn(C5CC5)c4c3F)CC12` (stereo not shown) [Example 21], for which the MIC amounted to 0.03 µg/mL (≈ 0.0755 µM) in assay [1]; 0.5 µg/mL (≈ 1.26 µM) with E. coli 455/7; 0.015 µg/mL (≈ 0.0377 µM) against E. coli Neumann; 0.06 µg/mL (≈ 0.151 µM) in [2]; 0.06 µg/mL (≈ 0.151 µM) in assay [3]; 0.3 µg/mL (≈ 0.755 µM) against Klebsiella pneumoniae 63. For the same molecule, the minimal inhibitory concentration (MIC) in [4] was 0.3 µg/mL (≈ 0.755 µM); against Mirococcus luteus 9341, 0.125 µg/mL (≈ 0.315 µM); in the assay with Providencia sp. 12012 it was 0.06 µg/mL (≈ 0.151 µM); against Providencia sp. 12052 it was 1 µg/mL (≈ 2.52 µM); in assay [5], 0.015 µg/mL (≈ 0.0377 µM); in assay [6] it was 0.015 µg/mL (≈ 0.0377 µM). Besides, the values for the minimal inhibitory concentration (MIC) in assay [7] and in assay [8] were 2 µg/mL (≈ 5.03 µM) and 0.25 µg/mL (≈ 0.629 µM), respectively.
For `NC1CCN(c2ccc3c(=O)c(C(=O)O)cn(C4CC4)c3c2F)C1` (stereo not shown) [Reference, 7-(3-aminopyrrolidin-1-yl)-1-cyclopropyl-8-fluoro-1,4-dihydro-4-oxo-3-quinolinecarboxylic acid, reference compound], the MIC in assay [1] amounted to 0.25 µg/mL (≈ 0.754 µM); in the assay with E. coli 455/7, 1 µg/mL (≈ 3.02 µM); against E. coli Neumann, 0.031 µg/mL (≈ 0.0936 µM); in assay [2] it was 0.25 µg/mL (≈ 0.754 µM); in assay [3], 0.25 µg/mL (≈ 0.754 µM); in the assay with Klebsiella pneumoniae 63, 0.062 µg/mL (≈ 0.187 µM). Besides, the minimum inhibitory concentration (MIC) turned out to be 0.062 µg/mL (≈ 0.187 µM) in assay [4]; 0.5 µg/mL (≈ 1.51 µM) with Mirococcus luteus 9341; 0.06 µg/mL (≈ 0.181 µM) against Providencia sp. 12012; 2 µg/mL (≈ 6.04 µM) against Providencia sp. 12052; 0.125 µg/mL (≈ 0.377 µM) in assay [5]; 0.125 µg/mL (≈ 0.377 µM) in [6]. Further, the MIC in assay [7] came out at 16 µg/mL (≈ 48.3 µM); in [8], 4 µg/mL (≈ 12.1 µM).
